According to PubChem BioAssay AID1918938 (Molecular Pharmacology Branch, DTP, NCI, 2023):

System: 556581-035-R-J1-PDC complex spheroid viability
Experiment: Anticancer human tumor 556581-035-R-J1-PDC patient-derived ovarian carcinoma cell line growth inhibition
Conditions: for IC50: curve of first compound; for viability, T/C: stronger effect = lower value
From the text: Multicellular complex tumor spheroid response to LSD1 Inhibitor Iadademstat in combination with a variety of drugs and investigational agents in selected tumor cell lines
The current study was undertaken to assess response to LSD1 inhibitors in combination with standard-of-care drugs and investigational agents in solid tumor complex spheroid models as well as in the K-562 leukemia. Complex spheroids include a stromal component modeled by human endothelial cells (HUVEC) and fibroblasts modeled by human mesenchymal stem cells (MSCs). The concentration ranges selected for each drug and investigational agent were based upon clinically achievable concentrations if the clinical Cmax of the agent was known.
Compounds. The drugs and investigational agents used in this study are listed on Table 1. All of the agents used, including staurosporine (NSC755774) and gemcitabine (NSC613327), were obtained from the Developmental Therapeutics Program, NCI. FDA-approved anticancer drugs are available from the NCI at http://dtp.nci.nih.gov/branches/dscb/oncology_drugset_explanation.html. Drugs and investigational agents were >95% pure by proton nuclear magnetic resonance (NMR) and liquid chromatography/mass spectrometry (LC/MS). Stock solutions were prepared at 400x in DMSO, stored at -70 degrees C, and diluted in fresh medium prior to their use. The final concentration of DMSO in cell culture wells never exceeded 0.25% (v/v). The FDA-approved anticancer drug set is available from the Developmental Therapeutics Program at https://dtp.cancer.gov/organization/dscb/obtaining/available_plates.htm. All drugs and investigational agents were tested over a range starting from a high concentration at or near the clinical Cmax and decreasing in half-log increments. If the clinical Cmax for an agent had not been determined, the highest concentration tested was 10 microM.
Cell Lines. The patient-derived cancer cell (PDC) lines: 292921-168-R-J2-PDC, K24384-001-R-PDC, and 521955-158-R2-J5-PDC pancreatic carcinomas, 556581-035-R-J1 ovarian carcinoma, 324938-238-R-J1-PDC, 855422-203-R-J1-PDC and 883617-216-R-J1-PDC urothelial bladder carcinomas, 743489-274-T-PDC renal cell carcinoma, 138582-R-J1 Merkel cell tumor, K60290-347-R-J1 and K57222-313-R-J1-PDC glioblastomas, 653999-131-R-J2-PDC, LG0703-F948-PDC, and 349418-098-R-PDC non-small cell lung carcinomas, 885512-296-R-J2-PDC, 171881-019-R-J1-PDC breast carcinomas and 186277-243-T-J2-PDC and 233499-124-R-J2-PDC colon carcinomas were obtained from the NCI Patient-Derived Models Repository (PDMR, https://pdmr.cancer.gov). The established cell lines NCI/ADR-RES (RRID:CVCL_14520 and OVCAR-5 (RRID:CVCL_1628) ovarian carcinomas, 786-O (RRID:CVCL_1051) and A498 (RRID:CVCL_A498) renal cell carcinoma, NCI-H211 (ATCC, cat. CRL-5824; RRID:CVCL_1529), NCI-H196 (ATCC, cat. CRL-5823, RRID:CVCL_1509), SW 1271 (ATCC, cat. CRL-2177, RRID:CVCL_1716) and NCI-H1876 (ATCC, cat. CRL-5902, RRID:CVCL_1503) small cell lung carcinomas, MDA-MB-231 (RRID:CVCL_0062) and MDA-MB-468 (RRID:CVCL_0419)breast carcinomas (10-12). Pooled donor human umbilical vein endothelial cells (HUVEC, Lonza, cat. CC-2519) and human mesenchymal stem cells (hMSC, Lonza, cat. PT-2501) were purchased from Lonza (Walkersville, MD).
Cell Culture. All cells were maintained in an incubator at 37 degrees C and 5% CO2 with 95% humidity. The PDC lines were cultured according to standard operating procedures established by the NCI PDMR (https://pdmr.cancer.gov). Briefly all PDCs were thawed and cultured in Matrigel-coated flasks prepared with a working solution of 1X Ham's F-12 nutrient mix, without supplementation (Invitrogen, Waltham, MA, cat. 11765054), 100 U/mL penicillin-streptomycin (Invitrogen, cat. 15140122), and 2.5% Matrigel (Corning Inc., Corning, NY, cat. 354248) for the first three passages. […]

[1] = second compound 0.1 µM, first compound 0.00316 µM
[2] = second compound 0.1 µM, first compound 0.01 µM
[3] = second compound 0.1 µM, first compound 0.0316 µM
[4] = second compound 0.1 µM, first compound 0.1 µM
[5] = second compound 0.316 µM, first compound 0.00316 µM
[6] = second compound 0.316 µM, first compound 0.01 µM
[7] = second compound 0.316 µM, first compound 0.0316 µM
[8] = second compound 0.316 µM, first compound 0.1 µM
[9] = second compound 1 µM, first compound 0.00316 µM
[10] = second compound 1 µM, first compound 0.01 µM
[11] = second compound 1 µM, first compound 0.0316 µM
[12] = second compound 1 µM, first compound 0.1 µM
[13] = second compound 3.16 µM, first compound 0.00316 µM
[14] = second compound 3.16 µM, first compound 0.01 µM
[15] = second compound 3.16 µM, first compound 0.0316 µM
[16] = second compound 3.16 µM, first compound 0.1 µM
[17] = second compound 10 µM, first compound 0.00316 µM
[18] = second compound 10 µM, first compound 0.01 µM
[19] = second compound 10 µM, first compound 0.0316 µM
[20] = second compound 10 µM, first compound 0.1 µM
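Note: spheroids exposed to agents for seven days.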
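Throughout, for viability, T/C: 100% = DMSO vehicle control wells.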

`CC[C@@]1(O)C(=O)OCc2c1cc1n(c2=O)Cc2cc3c(CN(C)C)c(O)ccc3nc2-1` + NC1CC1c1ccc(-c2cccc(O)c2)cc1 was tested, and the IC50 (second compound 0.1 µM) was 5.86 nM, the IC50 (second compound 0.316 µM) was 5.85 nM and the IC50 (second compound 1 µM) was 5.62 nM. It also gave an IC50 (second compound 3.16 µM) of 6.11 nM, an IC50 (second compound 10 µM) of 5.17 nM and a viability, T/C (second compound 0.1 µM, first compound 0.000316 µM) of 97.9%. The viability, T/C (second compound 0.1 µM, first compound 0.001 µM) was 88.2%, the viability, T/C [1] was 67% and the viability, T/C [2] was 34.9%. The viability, T/C [3] was 16.6%, the viability, T/C [4] was 7.12% and the viability, T/C (second compound 0.316 µM, first compound 0.000316 µM) was 95.5%. The viability, T/C (second compound 0.316 µM, first compound 0.001 µM) was 104%, the viability, T/C [5] was 64.8% and the viability, T/C [6] was 34.5%. It also gave a viability, T/C [7] of 16.6%, a viability, T/C [8] of 6.13% and a viability, T/C (second compound 1 µM, first compound 0.000316 µM) of 91.2%. For the same molecule, the viability, T/C (second compound 1 µM, first compound 0.001 µM) was 95.1%, the viability, T/C [9] was 68.4% and the viability, T/C [10] was 30.3%. The viability, T/C [11] was 13.3%, the viability, T/C [12] was 6.38% and the viability, T/C (second compound 3.16 µM, first compound 0.000316 µM) was 103%. The viability, T/C (second compound 3.16 µM, first compound 0.001 µM) was 96.1%, the viability, T/C [13] was 69.9% and the viability, T/C [14] was 34.7%. It also gave a viability, T/C [15] of 14.4%, a viability, T/C [16] of 6.43% and a viability, T/C (second compound 10 µM, first compound 0.000316 µM) of 87.9%. It also gave a viability, T/C (second compound 10 µM, first compound 0.001 µM) of 79.8%, a viability, T/C [17] of 59% and a viability, T/C [18] of 35.6%. For the same molecule, the viability, T/C [19] was 20.7% and the viability, T/C [20] was 5.8%.
Molecule `COc1cc(C2c3cc4c(cc3C(OC3OC5COC(C)OC5C(O)C3O)C3COC(=O)C23)OCO4)cc(OC)c1O` (stereo not given) + NC1CC1c1ccc(-c2cccc(O)c2)cc1 has an IC50 (second compound 0.1 µM) of 164 nM, an IC50 (second compound 0.316 µM) of 116 nM and an IC50 (second compound 1 µM) of 185 nM. The IC50 (second compound 3.16 µM) was 316 nM, the IC50 (second compound 10 µM) was 321 nM and the viability, T/C (second compound 0.1 µM, first compound 0.00949 µM) was 92.1%. For the same molecule, the viability, T/C (second compound 0.1 µM, first compound 0.03 µM) was 76%, the viability, T/C (second compound 0.1 µM, first compound 0.0949 µM) was 56.4% and the viability, T/C (second compound 0.1 µM, first compound 0.3 µM) was 42.7%. For the same molecule, the viability, T/C (second compound 0.1 µM, first compound 0.949 µM) was 30.3%, the viability, T/C (second compound 0.1 µM, first compound 3 µM) was 23.8% and the viability, T/C (second compound 0.316 µM, first compound 0.00949 µM) was 87.8%. The viability, T/C (second compound 0.316 µM, first compound 0.03 µM) was 75.6%, the viability, T/C (second compound 0.316 µM, first compound 0.0949 µM) was 52.9% and the viability, T/C (second compound 0.316 µM, first compound 0.3 µM) was 33.9%. The viability, T/C (second compound 0.316 µM, first compound 0.949 µM) was 31%, the viability, T/C (second compound 0.316 µM, first compound 3 µM) was 22.6% and the viability, T/C (second compound 1 µM, first compound 0.00949 µM) was 90.4%. It also gave a viability, T/C (second compound 1 µM, first compound 0.03 µM) of 79.6%, a viability, T/C (second compound 1 µM, first compound 0.0949 µM) of 53.6% and a viability, T/C (second compound 1 µM, first compound 0.3 µM) of 46.3%. The viability, T/C (second compound 1 µM, first compound 0.949 µM) was 29.9%, the viability, T/C (second compound 1 µM, first compound 3 µM) was 18.3% and the viability, T/C (second compound 3.16 µM, first compound 0.00949 µM) was 89.5%. It also gave a viability, T/C (second compound 3.16 µM, first compound 0.03 µM) of 72%, a viability, T/C (second compound 3.16 µM, first compound 0.0949 µM) of 63.6% and a viability, T/C (second compound 3.16 µM, first compound 0.3 µM) of 40.5%. It also gave a viability, T/C (second compound 3.16 µM, first compound 0.949 µM) of 54.4%, a viability, T/C (second compound 3.16 µM, first compound 3 µM) of 18.4% and a viability, T/C (second compound 10 µM, first compound 0.00949 µM) of 83.6%. It also gave a viability, T/C (second compound 10 µM, first compound 0.03 µM) of 77.8%, a viability, T/C (second compound 10 µM, first compound 0.0949 µM) of 59.9% and a viability, T/C (second compound 10 µM, first compound 0.3 µM) of 51.6%. It also gave a viability, T/C (second compound 10 µM, first compound 0.949 µM) of 39.5% and a viability, T/C (second compound 10 µM, first compound 3 µM) of 27.8%.
In the case of `Nc1ncn(C2CC(O)C(CO)O2)c(=O)n1` (stereo not given) + NC1CC1c1ccc(-c2cccc(O)c2)cc1, the IC50 (second compound 0.1 µM) is reported as over 1000 nM, the IC50 (second compound 0.316 µM) is reported as over 1000 nM and the IC50 (second compound 1 µM) is reported as over 1000 nM. The IC50 (second compound 3.16 µM) was over 1000 nM, the IC50 (second compound 10 µM) was over 1000 nM and the viability, T/C [1] was 78.6%. The viability, T/C [2] was 103%, the viability, T/C [3] was 76.2% and the viability, T/C [4] was 75.2%. The viability, T/C (second compound 0.1 µM, first compound 0.316 µM) was 72.4%, the viability, T/C (second compound 0.1 µM, first compound 1 µM) was 77.8% and the viability, T/C [5] was 103%. The viability, T/C [6] was 101%, the viability, T/C [7] was 77.5% and the viability, T/C [8] was 69.5%. It also gave a viability, T/C (second compound 0.316 µM, first compound 0.316 µM) of 62.8%, a viability, T/C (second compound 0.316 µM, first compound 1 µM) of 73.5% and a viability, T/C [9] of 94.4%. The viability, T/C [10] was 85.3%, the viability, T/C [11] was 97.4% and the viability, T/C [12] was 75.2%. It also gave a viability, T/C (second compound 1 µM, first compound 0.316 µM) of 55.2%, a viability, T/C (second compound 1 µM, first compound 1 µM) of 72.4% and a viability, T/C [13] of 108%. For the same molecule, the viability, T/C [14] was 102%, the viability, T/C [15] was 89.4% and the viability, T/C [16] was 54.9%. It also gave a viability, T/C (second compound 3.16 µM, first compound 0.316 µM) of 62.3%, a viability, T/C (second compound 3.16 µM, first compound 1 µM) of 69.1% and a viability, T/C [17] of 98.8%. For the same molecule, the viability, T/C [18] was 116%, the viability, T/C [19] was 90.7% and the viability, T/C [20] was 77.4%. For the same molecule, the viability, T/C (second compound 10 µM, first compound 0.316 µM) was 86% and the viability, T/C (second compound 10 µM, first compound 1 µM) was 66.9%.
